test system: MV-4-11 cells; test: IC50 of Table 2: Method 2, MV-4-11 cell survival (Cell Counting Kit-8), reported as Her2 degradation / inhibition of Hsp90; format: cell-based; conditions: Homo sapiens, MV4-11, 72 hours at 37° C., text calls it Her2 degradation, table title inhibition of Hsp90
Description: MV-4-11 cells (20,000 cells/well) were cultured in 96-well plates and maintained at 37° C. for several hours. The cells were treated with a compound of the invention or 17AAG (a positive control) at various concentrations and incubated at 37° C. for 72 hours. Cell survival was measured with Cell Counting Kit-8 (Dojindo Laboratories, Cat. #CK04).

| SMILES | IC50 [µM] |
| --- | --- |
| CCOC(=O)C1=C(C)NC(=O)NC1c1cc(C(C)C)c(O)cc1O (stereo not drawn) [Compound 1, ethyl 4-(2,4-dihydroxy-5-isopropylphenyl)-6-methyl-2-oxo-1,2,3,4-tetrahydropyrimidine-5-carboxylate] | > 100 |
| CCN1CC2=C(C1=O)C(c1cc(C(C)C)c(O)cc1O)NC(=O)N2 (stereo not drawn) [Compound 2, 4-(2,4-dihydroxy-5-isopropylphenyl)-6-ethyl-3,4,6,7-tetrahydro-1H-pyrrolo[3,4-d]pyrimidine-2,5-dione] | > 100 |
| CC(C)c1cc(C2NC(=O)NC3=C2C(=O)OC3)c(O)cc1O (stereo not drawn) [Compound 3, 4-(2,4-dihydroxy-5-isopropylphenyl)-3,4-dihydrofuro[3,4-d]pyrimidine-2,5(1H,7H)-dione] | > 500 |
| CC(C)c1cc(C2=NNC(=O)CN2c2ccc3c(ccn3C)c2)c(O)cc1O [Compound 4, 3-(2,4-dihydroxy-5-isopropylphenyl)-4-(1-methyl-1H-indol-5-yl)-4,5-dihydro-1,2,4-triazin-6(1H)-one] | > 50 |
| CC(C)c1cc(C2=NNC(=O)CN2Cc2ccc3c(c2)OCO3)c(O)cc1O [Compound 5, 4-(benzo[d][1,3]dioxol-5-ylmethyl)-3-(2,4-dihydroxy-5-isopropylphenyl)-4,5-dihydro-1,2,4-triazin-6(1H)-one] | 38.4 |
| CC(C)c1cc(C2=NNC(=O)CN2c2ccc(N3CCOCC3)cc2)c(O)cc1O [Compound 6, 3-(2,4-dihydroxy-5-isopropylphenyl)-4-(4-morpholinophenyl)-4,5-dihydro-1,2,4-triazin-6(1H)-one] | > 50 |
| CC(C)c1cc(C2=NNC(=O)CN2c2ccc(N(C)C)cc2)c(O)cc1O [Compound 7, 3-(2,4-dihydroxy-5-isopropylphenyl)-4-(4-(dimethylamino)phenyl)-4,5-dihydro-1,2,4-triazin-6(1H)-one] | > 50 |
| COc1ccc(CN2CC(=O)NN=C2c2cc(C(C)C)c(O)cc2O)cc1 [Compound 8, 3-(2,4-dihydroxy-5-isopropylphenyl)-4-(4-methoxybenzyl)-4,5-dihydro-1,2,4-triazin-6(1H)-one] | > 50 |

test system: Her2; test: Degradation of Her2 in BT-474 cells, Method 1 (Western blot); format: cell-based, human; conditions: 0.5 μM, overnight
Description: Human high-Her2 breast carcinoma BT474 (HTB-20), SK-BR-3 (HTB-30) and MCF-7 breast carcinoma (HTB-22) from American Type Culture Collection, VA, USA were grown in Dulbecco's modified Eagle's medium with 4 mM L-glutamine and antibiotics (100 IU/ml penicillin and 100 ug/ml streptomycine; GibcoBRL). To obtain exponential cell growth, cells were trypsinized, counted and seeded at a cell density of 0.5×10^6 cells/ml regularly, every 3 days. All experiments were performed on day 1 after cell passage.
BT-474 cells are treated with 0.5 μM, 2 μM, or 5 μM of 17AAG (a positive control) or 0.5 μM, 2 μM, or 5 μM of a compound of the invention overnight in DMEM medium. After treatment, each cytoplasmic sample is prepared from 1×10^6 cells by incubation of cell lysis buffer (#9803, cell Signaling Technology) on ice for 10 minutes. The resulting supernatant used as the cytosol fractions is dissolved with sample buffer for SDS-PAGE and run on a SDS-PAGE gel, blotted onto a nitrocellulose membrane by using semi-dry transfer. Non-specific binding to nitrocellulose is blocked with 5% skim milk in TBS with 0.5% Tween at room temperature for 1 hour, then probed with anti-Her2/ErB2 mAb (rabbit IgG, #2242, Cell Signaling) and anti-Tubulin (T9026, Sigma) as housekeeping control protein. […]

| SMILES | degradation of Her2 |
| --- | --- |
| C=CCNC1=C2C[C@@H](C)C[C@H](OC)[C@H](O)[C@@H](C)/C=C(\C)[C@H](OC(N)=O)[C@@H](OC)/C=C\C=C(/C)C(=O)NC(=CC1=O)C2=O [Compound 17AAG, 17-allylamino-17-demethoxygeldanamycin] | partial degradation |
